Values joined by “and” are separate entries in the source; they are usually repeats but may differ in a detail not shown here. Equal values may be shown once. Where a name gives a salt, the structure may show the parent alone.
Legend:
[1] = Solubility in biological media at 37° C. (HPLC, pH)
[2] = XRPD of residual solids in solubility test in biological media; type: physicochemical; conditions: Water; 37° C.
[3] = Stability of crystal forms under stability test conditions (appearance, XRPD, HPLC); type: physicochemical; conditions: for Total impurities: HPLC
Description: The samples were placed under the stability conditions shown in the following table, sampling was performed at the corresponding time points, and the samples were subjected to appearance and XRPD tests. […] The stability results obtained are recorded in the following table. […] The samples were placed under the stability test conditions shown in the following table, sampling was performed at different time points, and the samples were subjected to the XRPD test. […] The samples were placed in an open state under the stability test conditions of 40° C./75% RH and 90% RH; and the samples were placed in a closed state at 60° C. in a light box (the test samples in the dark were placed in the same manner as the illumination test samples, and the treatment was performed in the dark). Sampling was performed at different time points, and the samples were subjected to the XRPD test. […] The samples were placed under the stability conditions shown in the following table, sampling was performed at the corresponding time points, and the samples were subjected to appearance and XRPD tests. […] The stability results obtained are recorded in the following table.

[4] = Polymorph screening test, suspension method (crystal form by XRPD after stirring in solvent); type: physicochemical
Description: (or 50° C.) for 3 days in the dark and centrifuged to remove the supernatant; the resulting precipitate was dried under vacuum (25° C., −0.1 MPa); and the resulting solid was collected and subjected to the XRPD test. The results are as follows:
(or 50° C./80° C.) for 3 days in the dark and centrifuged to remove the supernatant; and the resulting precipitate was dried under vacuum (25° C., −0.1 MPa).
(or 50° C.) for 3 days in the dark and centrifuged to remove the supernatant; and the resulting precipitate was dried under vacuum (25° C., −0.1 MPa).

[5] = Dynamic vapor sorption (DVS) hygroscopicity test; type: physicochemical; conditions: for hygroscopic weight gain (DVS curve): 25° C. and 80% RH
Description: In the present disclosure, the DVS test parameters are set as follows: [table]

[6] = test system: multiple xenograft tumor models; conditions: cited from earlier work
[7] = in vivo; cited from earlier work
[8] = test system: EGFRT790M-mutant NSCLC xenograft tumor models; conditions: cited from earlier work
preclinical tumor model = preclinical tumor model studies; cited from earlier work
[9] = Illumination (1 ICH), 5 d and 10 d

Molecule: Maleate
- Solubility ([1]; FaSSIF-V2, 2 h): 20 µg/mL
- Solubility ([1]; FaSSIF-V2, 24 h): <LOQ
- Solubility ([1]; FeSSIF-V2, 2 h): 220 µg/mL
- Solubility ([1]; FeSSIF-V2, 24 h): 220 µg/mL
- Solubility ([1]; SGF, 2 h): 1390 µg/mL
- Solubility ([1]; SGF, 24 h): 1920 µg/mL
- Solubility ([1]; Water, 2 h): 20 µg/mL
- Solubility ([1]; Water, 24 h): 20 µg/mL
- XRPD results of residual solids [2]: Crystal form A

Molecule: Cc1cc(Nc2ncc(Cl)c(Nc3ccccc3S(=O)(=O)C(C)C)n2)c(OC(C)C)cc1C1=CCN(C2CCOCC2)CC1 [one equivalent of succinate crystal form D]
- Total impurities ([3]; 0 d): 0.73%
- Total impurities ([3]; 40° C./75% RH, 1 M): 0.74%
- Total impurities ([3]; 40° C./75% RH, 10 d): 0.74%
- Total impurities ([3]; 60° C., 1 M): 0.71%
- Total impurities ([3]; 60° C., 10 d): 0.69%
- Total impurities ([3]; 90% RH, 1 M): 0.96%
- Total impurities ([3]; 90% RH, 10 d): 0.73%
- Total impurities ([3]; Illumination, 5 d): 0.86%
- Appearance ([3]; Illumination, 5 d and 10 d): Color deepening
- Total impurities ([3]; Illumination, 10 d): 0.98%
- stability of crystal form in solvents, succinate polymorph screening test ([4]; in solvents): relatively good stability
- crystal form when stirred in solvent ([4]; methanol, ethanol, acetonitrile, acetone, ethyl acetate, dichloromethane, water, n-heptane, dioxane, or mixed solvent of methanol, acetonitrile, or acetone with water, 40° C.): remained stable
- hygroscopic weight gain (DVS curve) [5]: 0.19±0.005% and 0.19%

Molecule: Cc1cc(Nc2ncc(Cl)c(Nc3ccccc3S(=O)(=O)C(C)C)n2)c(OC(C)C)cc1C1=CCN(C2CCOCC2)CC1 [APG-2449]
- anti-tumor activity [6]: exhibits anti-tumor activity
- oral bioavailability [7]: high oral bioavailability
- effect in combination with EGFR inhibitors (particularly AZD9291/osimertinib) [8]: synergistic effect
- resistance developed by the first-generation ALK inhibitor (preclinical tumor model): can overcome resistance

Molecule: Cc1cc(Nc2ncc(Cl)c(Nc3ccccc3S(=O)(=O)C(C)C)n2)c(OC(C)C)cc1C1=CCN(C2CCOCC2)CC1 [one equivalent of maleate crystal form A]
- Appearance ([3]; 0 d): Pale yellow powder
- Crystal form (XRPD) ([3]; 0 d): Maleate crystal form A
- Total impurities ([3]; 0 d): 0.12%
- Crystal form (XRPD) ([3]; 40° C./75% RH, 5 d, 10 d and 30 d): Maleate crystal form A
- Total impurities ([3]; 40° C./75% RH, 5 d): 0.16%
- Total impurities ([3]; 40° C./75% RH, 10 d): 0.14%
- Total impurities ([3]; 40° C./75% RH, 30 d): 0.29%
- Crystal form (XRPD) ([3]; 60° C., 5 d, 10 d and 30 d): Maleate crystal form A
- Total impurities ([3]; 60° C., 5 d): 0.16%
- Total impurities ([3]; 60° C., 10 d): 0.21%
- Total impurities ([3]; 60° C., 30 d): 0.16%
- Crystal form (XRPD) ([3]; 90% RH, 5 d, 10 d and 30 d): Maleate crystal form A
- Total impurities ([3]; 90% RH, 5 d): 0.14%
- Total impurities ([3]; 90% RH, 10 d): 0.25%
- Total impurities ([3]; 90% RH, 30 d): 0.26%
- Total impurities ([3]; Illumination (1 ICH), 5 d): 0.26%
- Appearance [3, 9]: Color deepening
- Crystal form (XRPD) [3, 9]: Maleate crystal form A
- Total impurities ([3]; Illumination (1 ICH), 10 d): 0.65%
- Total impurities ([3]; In the dark, 5 d): 0.12%
- Crystal form (XRPD) ([3]; In the dark, 5 d and 10 d): Maleate crystal form A
- Total impurities ([3]; In the dark, 10 d): 0.18%
- stability of crystal form in solvent, suspension method ([4]; ethanol, isopropanol, acetone, ethyl acetate, isopropyl acetate, methyl tert-butyl ether, dichloromethane, tetrahydrofuran, toluene, n-heptane, dioxane, methyl acetate, 2-methyltetrahydrofuran, cyclohexane, n-hexane, methyl ethyl ketone, or methyl isobutyl ketone): relatively good stability
- crystal form when stirred in solvent ([4]; same solvents as in b585 at 25-50° C.): remained stable
- hygroscopic weight gain (DVS curve) [5]: 0.11±0.005% and 0.11%
- hygroscopicity (DVS result in words) ([5]; 80% RH): no hygroscopicity
- crystal form before and after the hygroscopic test ([5]; DVS): did not change

From US20260217692A1 (Ascentage Pharma (Suzhou) Co., Ltd., priority 2023, published 2026)
